The values below are quoted from earlier work in patent US20260083754A1, “CORTICOSTEROID CONTAINING ORALLY DISINTEGRATING TABLET COMPOSITIONS FOR EOSINOPHILIC ESOPHAGITIS” (Ellodi Pharmaceuticals, L.P., priority 2013, published 2026).

Data set [1] deals with adolescent and adult patients with active EoE. Conditions: 15-day course, 1 mg twice daily.

Regarding `CCCC1O[C@@H]2C[C@H]3[C@@H]4CCC5=CC(=O)C=C[C@]5(C)[C@H]4[C@@H](O)C[C@]3(C)[C@]2(C(=O)CO)O1` (stereo partly drawn) [budesonide], the tolerability result in data set [1] is listed as “well tolerated”. Turning to `CCC(=O)O[C@]1(C(=O)SCF)[C@H](C)C[C@H]2[C@@H]3C[C@H](F)C4=CC(=O)C=C[C@]4(C)[C@@]3(F)[C@@H](O)C[C@@]21C` [FP, fluticasone propionate], the “patients who achieved histologic remission” value with EoE patients (FP-treated patients, placebo 9%, P=0.047) is reported as 50%. For the same compound, the esophageal eosinophil levels entry in the data set with EoE patients (more pronounced effect in non-allergic individuals) was “decreased”.
